Tests used:
[1] = molecular target: T1, Serine/threonine-protein kinase 3 (Homo sapiens) (UniProt Q13188); test: Inhibition of human full length MST2 expressed in baculovirus assessed as substrate phosphorylation using fluorescence-labelled peptides as substrate at 9 uM after 90 mins by microfluidic peptide phosphorylation assay
T1 sequence (whole entry): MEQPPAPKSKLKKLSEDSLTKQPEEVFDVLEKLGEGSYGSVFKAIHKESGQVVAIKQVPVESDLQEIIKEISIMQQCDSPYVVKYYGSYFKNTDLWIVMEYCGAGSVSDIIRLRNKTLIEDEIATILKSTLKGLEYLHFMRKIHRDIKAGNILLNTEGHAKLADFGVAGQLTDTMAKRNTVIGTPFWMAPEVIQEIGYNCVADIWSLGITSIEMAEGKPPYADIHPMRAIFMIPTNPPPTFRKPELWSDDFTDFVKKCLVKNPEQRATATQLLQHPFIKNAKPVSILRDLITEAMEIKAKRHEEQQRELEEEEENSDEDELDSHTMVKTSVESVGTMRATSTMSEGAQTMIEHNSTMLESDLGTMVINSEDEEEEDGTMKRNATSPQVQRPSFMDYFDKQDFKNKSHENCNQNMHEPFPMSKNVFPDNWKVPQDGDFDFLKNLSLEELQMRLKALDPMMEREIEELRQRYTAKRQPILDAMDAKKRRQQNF

[2] = molecular target: Tyrosine-protein kinase Fyn (Homo sapiens) (UniProt P06241); test: Inhibition of human full length FYN expressed in baculovirus assessed as substrate phosphorylation using fluorescence-labelled peptides as substrate at 9 uM after 90 mins by microfluidic peptide phosphorylation assay
Chain of Tyrosine-protein kinase Fyn (Homo sapiens) (P06241 2-537 limits assumed): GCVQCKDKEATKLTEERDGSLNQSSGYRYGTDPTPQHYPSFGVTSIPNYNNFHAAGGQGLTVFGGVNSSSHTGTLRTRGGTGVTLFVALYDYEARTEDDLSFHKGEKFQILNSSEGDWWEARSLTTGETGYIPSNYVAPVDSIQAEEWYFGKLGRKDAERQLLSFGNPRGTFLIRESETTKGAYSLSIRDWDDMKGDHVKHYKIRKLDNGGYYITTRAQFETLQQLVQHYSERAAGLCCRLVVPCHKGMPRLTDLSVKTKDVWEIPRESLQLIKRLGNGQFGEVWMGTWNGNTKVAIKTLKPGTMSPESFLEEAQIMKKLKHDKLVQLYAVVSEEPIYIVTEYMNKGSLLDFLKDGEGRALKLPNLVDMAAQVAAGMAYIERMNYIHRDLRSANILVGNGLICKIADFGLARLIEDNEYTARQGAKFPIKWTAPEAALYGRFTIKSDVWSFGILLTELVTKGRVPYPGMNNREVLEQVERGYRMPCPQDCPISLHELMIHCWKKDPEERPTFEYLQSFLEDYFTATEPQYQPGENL

[3] = molecular target: T2, Mitogen-activated protein kinase 13 (Homo sapiens) (UniProt O15264); test: Inhibition of human full length p38 delta expressed in Escherichia coli cell assessed as substrate phosphorylation using fluorescence-labelled peptides as substrate at 0.06 uM after 90 mins by microfluidic peptide phosphorylation assay
T2 sequence (whole entry): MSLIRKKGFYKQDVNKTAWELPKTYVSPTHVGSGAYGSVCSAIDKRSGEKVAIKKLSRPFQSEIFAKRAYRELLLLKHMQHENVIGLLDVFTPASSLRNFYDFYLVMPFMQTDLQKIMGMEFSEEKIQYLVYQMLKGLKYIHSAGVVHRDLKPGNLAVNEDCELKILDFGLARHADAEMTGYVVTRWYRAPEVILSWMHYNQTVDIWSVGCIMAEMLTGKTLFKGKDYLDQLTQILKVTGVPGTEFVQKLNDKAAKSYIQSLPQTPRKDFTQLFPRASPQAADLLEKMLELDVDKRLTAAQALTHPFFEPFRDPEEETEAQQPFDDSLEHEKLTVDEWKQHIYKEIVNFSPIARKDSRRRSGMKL

[4] = molecular target: Epidermal growth factor receptor (Homo sapiens) (UniProt P00533); test: Inhibition of human EGFR catalytic domain expressed in baculovirus assessed as substrate phosphorylation using fluorescence-labelled peptides as substrate at 0.06 uM after 90 mins by microfluidic peptide phosphorylation assay
Chain of Epidermal growth factor receptor (Homo sapiens) (P00533 whole entry, the tested form may be a part): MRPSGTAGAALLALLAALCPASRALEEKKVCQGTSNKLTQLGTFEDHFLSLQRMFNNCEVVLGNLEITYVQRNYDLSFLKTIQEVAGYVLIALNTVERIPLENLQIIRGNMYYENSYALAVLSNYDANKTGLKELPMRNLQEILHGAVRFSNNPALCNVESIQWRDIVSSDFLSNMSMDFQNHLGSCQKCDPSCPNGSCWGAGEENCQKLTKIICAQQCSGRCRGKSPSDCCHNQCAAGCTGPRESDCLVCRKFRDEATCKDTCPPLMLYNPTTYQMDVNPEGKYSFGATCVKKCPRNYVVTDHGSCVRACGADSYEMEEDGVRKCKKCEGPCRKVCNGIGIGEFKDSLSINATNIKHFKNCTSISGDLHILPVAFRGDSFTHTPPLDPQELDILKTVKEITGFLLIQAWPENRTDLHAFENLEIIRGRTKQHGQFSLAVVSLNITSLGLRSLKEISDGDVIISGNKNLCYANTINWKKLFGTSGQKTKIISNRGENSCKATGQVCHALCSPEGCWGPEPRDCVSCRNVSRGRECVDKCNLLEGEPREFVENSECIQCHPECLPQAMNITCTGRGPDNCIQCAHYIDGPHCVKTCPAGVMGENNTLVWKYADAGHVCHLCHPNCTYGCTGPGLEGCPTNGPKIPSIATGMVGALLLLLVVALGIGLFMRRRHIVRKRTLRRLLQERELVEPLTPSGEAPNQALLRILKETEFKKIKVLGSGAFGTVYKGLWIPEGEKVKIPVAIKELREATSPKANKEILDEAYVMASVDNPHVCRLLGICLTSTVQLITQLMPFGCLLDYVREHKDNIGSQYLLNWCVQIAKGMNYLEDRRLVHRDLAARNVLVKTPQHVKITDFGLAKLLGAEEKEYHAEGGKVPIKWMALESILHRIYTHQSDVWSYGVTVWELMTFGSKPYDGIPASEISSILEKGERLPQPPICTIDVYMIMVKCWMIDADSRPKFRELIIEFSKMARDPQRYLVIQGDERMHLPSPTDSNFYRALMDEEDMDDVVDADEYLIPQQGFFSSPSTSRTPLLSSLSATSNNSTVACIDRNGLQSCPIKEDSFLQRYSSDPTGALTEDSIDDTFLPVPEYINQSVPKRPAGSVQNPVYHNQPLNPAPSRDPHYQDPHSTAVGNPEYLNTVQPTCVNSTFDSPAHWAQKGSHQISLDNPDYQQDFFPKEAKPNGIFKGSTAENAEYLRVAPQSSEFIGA

[5] = molecular target: T3, Cytoplasmic tyrosine-protein kinase BMX (Homo sapiens) (UniProt P51813); test: Inhibition of human full length BMX expressed in baculovirus assessed as substrate phosphorylation using fluorescence-labelled peptides as substrate at 0.1 uM after 90 mins by microfluidic peptide phosphorylation assay
T3 sequence (whole entry): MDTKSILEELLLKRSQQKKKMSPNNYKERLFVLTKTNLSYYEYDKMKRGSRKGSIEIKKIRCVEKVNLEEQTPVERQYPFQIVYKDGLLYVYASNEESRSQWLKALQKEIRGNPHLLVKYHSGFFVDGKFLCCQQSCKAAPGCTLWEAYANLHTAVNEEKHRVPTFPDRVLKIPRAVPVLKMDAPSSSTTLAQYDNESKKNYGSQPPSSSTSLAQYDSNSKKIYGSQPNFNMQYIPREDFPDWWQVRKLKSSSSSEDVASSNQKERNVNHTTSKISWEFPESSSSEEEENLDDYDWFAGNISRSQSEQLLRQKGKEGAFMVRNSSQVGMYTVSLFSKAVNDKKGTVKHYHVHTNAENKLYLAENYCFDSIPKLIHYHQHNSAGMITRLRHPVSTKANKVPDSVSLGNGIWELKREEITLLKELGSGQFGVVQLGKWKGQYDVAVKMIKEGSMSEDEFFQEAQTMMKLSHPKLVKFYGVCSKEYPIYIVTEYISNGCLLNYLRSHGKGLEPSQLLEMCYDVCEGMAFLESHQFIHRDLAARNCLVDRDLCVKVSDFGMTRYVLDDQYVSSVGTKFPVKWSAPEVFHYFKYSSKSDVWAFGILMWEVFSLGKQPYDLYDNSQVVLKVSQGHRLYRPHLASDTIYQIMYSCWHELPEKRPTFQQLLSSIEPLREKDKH

[6] = system: Tyrosine-protein kinase ABL1 (Homo sapiens), P00519 [Q252H]; test: Inhibition of human truncated ABL Q252H mutant expressed in baculovirus assessed as substrate phosphorylation using fluorescence-labelled peptides as substrate at 0.1 uM after 90 mins by microfluidic peptide phosphorylation assay
[7] = molecular target: Protein kinase C beta type (Homo sapiens) (UniProt P05771); test: Inhibition of human truncated PKC beta1 expressed in baculovirus assessed as substrate phosphorylation using fluorescence-labelled peptides as substrate at 0.1 uM after 90 mins by microfluidic peptide phosphorylation assay
Chain of Protein kinase C beta type (Homo sapiens) (P05771 2-671 limits assumed): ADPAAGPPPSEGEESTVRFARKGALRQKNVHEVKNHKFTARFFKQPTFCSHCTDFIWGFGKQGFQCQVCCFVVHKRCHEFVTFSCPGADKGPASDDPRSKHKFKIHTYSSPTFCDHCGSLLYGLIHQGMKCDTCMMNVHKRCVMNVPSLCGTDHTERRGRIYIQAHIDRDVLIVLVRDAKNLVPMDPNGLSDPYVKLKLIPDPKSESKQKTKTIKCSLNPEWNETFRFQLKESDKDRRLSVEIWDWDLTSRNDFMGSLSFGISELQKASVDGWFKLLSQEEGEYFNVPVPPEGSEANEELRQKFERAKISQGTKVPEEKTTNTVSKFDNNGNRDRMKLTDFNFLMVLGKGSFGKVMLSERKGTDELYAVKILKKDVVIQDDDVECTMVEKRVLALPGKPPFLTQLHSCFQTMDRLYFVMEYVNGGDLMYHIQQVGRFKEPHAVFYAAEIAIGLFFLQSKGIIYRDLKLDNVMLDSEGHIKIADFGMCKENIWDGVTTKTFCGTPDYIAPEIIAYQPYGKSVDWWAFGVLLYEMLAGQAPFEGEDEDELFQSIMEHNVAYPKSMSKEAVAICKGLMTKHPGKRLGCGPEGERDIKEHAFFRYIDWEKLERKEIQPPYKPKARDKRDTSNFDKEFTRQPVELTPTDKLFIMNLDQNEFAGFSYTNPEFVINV

[8] = molecular target: Serine/threonine-protein kinase MARK2 (Homo sapiens) (UniProt Q7KZI7); test: Inhibition of human full length MARK2 expressed in baculovirus assessed as substrate phosphorylation using fluorescence-labelled peptides as substrate at 0.1 uM after 90 mins by microfluidic peptide phosphorylation assay
[9] = molecular target: Fibroblast growth factor receptor 4 (Homo sapiens) (UniProt P22455); test: Inhibition of human FGFR4 catalytic domain expressed in baculovirus assessed as substrate phosphorylation using fluorescence-labelled peptides as substrate at […] after 90 mins by microfluidic peptide phosphorylation assay
Chain of Fibroblast growth factor receptor 4 (Homo sapiens) (P22455 22-802 limits assumed): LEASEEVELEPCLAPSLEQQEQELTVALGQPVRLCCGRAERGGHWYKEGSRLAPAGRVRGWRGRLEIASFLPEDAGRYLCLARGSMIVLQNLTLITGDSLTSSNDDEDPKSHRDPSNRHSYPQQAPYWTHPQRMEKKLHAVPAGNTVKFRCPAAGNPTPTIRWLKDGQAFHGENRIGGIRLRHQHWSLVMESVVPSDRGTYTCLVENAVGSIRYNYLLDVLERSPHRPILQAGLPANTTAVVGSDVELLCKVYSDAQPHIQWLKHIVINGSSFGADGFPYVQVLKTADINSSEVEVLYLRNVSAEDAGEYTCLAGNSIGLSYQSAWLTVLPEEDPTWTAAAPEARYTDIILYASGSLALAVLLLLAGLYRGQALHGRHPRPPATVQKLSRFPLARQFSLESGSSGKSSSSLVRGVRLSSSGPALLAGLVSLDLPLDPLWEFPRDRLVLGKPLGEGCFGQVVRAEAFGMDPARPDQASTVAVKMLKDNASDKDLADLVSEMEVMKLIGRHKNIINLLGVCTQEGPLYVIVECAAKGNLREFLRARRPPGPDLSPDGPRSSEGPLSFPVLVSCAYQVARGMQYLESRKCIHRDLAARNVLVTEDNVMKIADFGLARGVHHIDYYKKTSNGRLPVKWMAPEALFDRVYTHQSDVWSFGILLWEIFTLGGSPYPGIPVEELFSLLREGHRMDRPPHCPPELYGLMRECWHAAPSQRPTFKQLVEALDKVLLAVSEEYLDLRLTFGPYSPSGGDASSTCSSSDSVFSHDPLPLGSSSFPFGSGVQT

[10] = molecular target: Calcium/calmodulin-dependent protein kinase type II subunit delta (Homo sapiens) (UniProt Q13557); test: Inhibition of human full length CAMK2D expressed in baculovirus assessed as substrate phosphorylation using fluorescence-labelled peptides as substrate at 420 uM after 90 mins by microfluidic peptide phosphorylation assay
Chain of Calcium/calmodulin-dependent protein kinase type II subunit delta (Homo sapiens) (Q13557 whole entry, the tested form may be a part): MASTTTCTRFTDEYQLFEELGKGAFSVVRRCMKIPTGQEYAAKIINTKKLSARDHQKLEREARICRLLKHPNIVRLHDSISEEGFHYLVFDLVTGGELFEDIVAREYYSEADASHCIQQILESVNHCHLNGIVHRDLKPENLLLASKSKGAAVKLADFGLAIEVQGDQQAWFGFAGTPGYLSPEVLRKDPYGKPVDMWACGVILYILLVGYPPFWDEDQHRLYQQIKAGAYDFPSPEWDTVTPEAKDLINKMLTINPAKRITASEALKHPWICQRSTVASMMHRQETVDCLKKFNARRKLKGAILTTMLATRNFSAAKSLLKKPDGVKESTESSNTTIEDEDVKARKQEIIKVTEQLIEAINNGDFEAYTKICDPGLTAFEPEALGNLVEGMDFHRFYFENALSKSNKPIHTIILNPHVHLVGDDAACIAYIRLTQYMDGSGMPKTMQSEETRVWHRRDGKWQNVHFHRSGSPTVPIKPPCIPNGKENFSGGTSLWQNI

[11] = molecular target: Fibroblast growth factor receptor 3 (Homo sapiens) (UniProt P22607); test: Inhibition of human FGFR3 catalytic domain expressed in baculovirus assessed as substrate phosphorylation using fluorescence-labelled peptides as substrate at 0.2 uM after 90 mins by microfluidic peptide phosphorylation assay
Chain of Fibroblast growth factor receptor 3 (Homo sapiens) (P22607 23-806 limits assumed): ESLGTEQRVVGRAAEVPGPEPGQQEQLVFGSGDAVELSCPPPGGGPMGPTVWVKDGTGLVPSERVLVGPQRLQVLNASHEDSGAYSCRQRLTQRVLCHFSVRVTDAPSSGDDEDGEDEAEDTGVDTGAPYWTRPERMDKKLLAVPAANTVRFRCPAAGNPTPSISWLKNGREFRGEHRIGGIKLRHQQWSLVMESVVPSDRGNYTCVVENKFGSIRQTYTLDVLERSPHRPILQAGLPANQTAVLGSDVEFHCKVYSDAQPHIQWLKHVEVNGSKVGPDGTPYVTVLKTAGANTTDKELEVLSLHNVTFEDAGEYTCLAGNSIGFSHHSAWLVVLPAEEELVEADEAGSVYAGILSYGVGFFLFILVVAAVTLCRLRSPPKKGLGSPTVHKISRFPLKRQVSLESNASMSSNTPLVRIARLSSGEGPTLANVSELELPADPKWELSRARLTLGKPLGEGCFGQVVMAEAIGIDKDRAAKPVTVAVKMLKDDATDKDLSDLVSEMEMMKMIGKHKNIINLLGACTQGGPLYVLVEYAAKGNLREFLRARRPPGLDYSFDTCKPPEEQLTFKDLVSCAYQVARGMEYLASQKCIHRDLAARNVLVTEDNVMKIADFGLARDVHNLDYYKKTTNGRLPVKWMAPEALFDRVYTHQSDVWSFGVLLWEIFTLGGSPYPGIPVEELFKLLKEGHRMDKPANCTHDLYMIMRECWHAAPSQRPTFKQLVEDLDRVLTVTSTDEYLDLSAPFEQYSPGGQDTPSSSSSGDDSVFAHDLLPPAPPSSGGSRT

[12] = molecular target: Mitogen-activated protein kinase 3 (Homo sapiens) (UniProt P27361); test: Inhibition of human full length ERK1 expressed in Escherichia coli cell assessed as substrate phosphorylation using fluorescence-labelled peptides as substrate at 0.2 uM after 90 mins by microfluidic peptide phosphorylation assay
Chain of Mitogen-activated protein kinase 3 (Homo sapiens) (P27361 whole entry, the tested form may be a part): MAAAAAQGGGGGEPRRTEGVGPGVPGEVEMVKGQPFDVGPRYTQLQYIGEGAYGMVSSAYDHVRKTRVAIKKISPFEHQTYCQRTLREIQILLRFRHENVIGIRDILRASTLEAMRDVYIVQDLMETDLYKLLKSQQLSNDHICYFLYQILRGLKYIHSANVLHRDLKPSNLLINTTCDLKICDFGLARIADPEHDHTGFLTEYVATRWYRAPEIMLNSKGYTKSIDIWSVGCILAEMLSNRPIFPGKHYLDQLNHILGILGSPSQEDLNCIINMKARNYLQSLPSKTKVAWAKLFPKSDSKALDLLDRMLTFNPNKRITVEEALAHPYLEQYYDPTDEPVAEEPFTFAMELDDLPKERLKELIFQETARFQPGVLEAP

[13] = molecular target: Epidermal growth factor receptor (Homo sapiens) (UniProt P00533); test: Inhibition of human EGFR catalytic domain expressed in baculovirus assessed as substrate phosphorylation using fluorescence-labelled peptides as substrate at 2 uM after 90 mins by microfluidic peptide phosphorylation assay
[14] = molecular target: Mitogen-activated protein kinase kinase kinase kinase 4 (Homo sapiens) (UniProt O95819); test: Inhibition of human HGK catalytic domain expressed in baculovirus assessed as substrate phosphorylation using fluorescence-labelled peptides as substrate at 1000 uM after 90 mins by microfluidic peptide phosphorylation assay

NCC1CN(c2ncnc3[nH]c4cnccc4c23)CCO1 (centres undefined)
inhibition [1]: 81% | inhibition [2]: 29.5%

NC1(Cc2ccc(Cl)cc2)CCN(c2ncnc3[nH]ccc23)CC1
inhibition [3]: 0% | inhibition [4]: 0%

C[C@H](CN(C)C)Oc1nc(Nc2cc3cccc(Cl)c3cn2)cnc1C#N
inhibition [5]: 3% | inhibition [6]: 4% | inhibition [7]: 3% | inhibition [8]: 2%

COC(=O)c1cnc(Nc2cnc(C#N)cn2)cc1NCC1CCNCC1
inhibition [9]: 1.5%

c1nc(N2CCOCC2)c2nc[nH]c2n1
inhibition [10]: 63.5%

Clc1ccc(C2(c3ccc(-c4ncnc5[nH]cnc45)cc3)CCNCC2)cc1
inhibition [11]: 0% | inhibition [12]: 6%

NC1CCN(c2ncnc3[nH]ccc23)CC1
inhibition [13]: 3.5%

c1cnc2[nH]ccc2c1
inhibition [14]: 90%

Reference: ChEMBL document CHEMBL3132769, “Fragment growing to retain or alter the selectivity of anchored kinase hinge-binding fragments” (Medchemcomm, 2014)
